Experiments:
complement C9 mRNA = experiment: Complement mRNA expression in primary human hepatocytes; format: cell-based; details: 0.3 uM, maximum at 48 h, single donor
Description: Huh-7 and HepG2 cells are liver-derived cell lines and are models for what can occur in the liver. Huh-7 cells (JCRB Cell Bank) were introduced to 96-well plates (^˜2.5×10^5 per well) in 100 μL DMEM containing 10% (v/v) FBS, 100 U/mL penicillin, 100 ug/mL streptomycin and 5 ug/mL plasmocin (all reagents from Gibco, except for the former, which was obtained from Invivogen). After 24 h, Huh-7 cells were treated with compounds in the same media formulation used for plating, and supplemented with 0.1% DMSO for the amount of time indicated in tables 2, 3, and 4. For select experiments, 24 h post-plating, cells were treated with cytokines and the compound of interest simultaneously, for a total treatment time of 48 h. Alternatively, 24 h after plating, cells were pre-treated with cytokines for 24 h before adding the compound of interest for 48 h. HepG2 cells (ATCC) were cultured in 96-well plates (^˜2.5×10^5 per well) in MEM containing 10% FBS, 1× non-essential amino acids, 1 mM sodium pyruvate, 2 mM L-glutamine, 100 U/mL penicillin, 100 ug/mL streptomycin and 5 ug/mL plasmocin. Serum amount was reduced to 0.5% for treatments with compound or cytokines. Timing of treatment of HepG2 cells with compounds and cytokines was as described for Huh-7 cells. Primary human hepatocytes (CellzDirect/Life Technologies) were plated in collagen coated 96-well plates at 70 000 cells/well, then overlaid with Matrigel™ as recommended by the supplier. Cells were treated with compounds of interest and/or cytokines for the indicated time points in the recommended media supplemented with 0.1% DMSO and 10% FBS (v/v). Cells were harvested by mRNA Catcher PLUS Kit (Life Technologies) followed by real-time PCR using the RNA UltraSense One-Step qRT-PCR System. The level of the mRNA of interest was measured by TaqMan real-time PCR relative to the endogenous control cyclophilin A in the same sample.

Complement C3 (C3) = experiment: Multi-analyte profiling of plasma, ASSURE trial; format: in vivo, human; details: week 26 vs. baseline, N 20
Description: (§1) In this example, plasma samples from human subjects treated with placebo or RVX000222 was analyzed by Multi-Analyte Profiling (MAP) technology. The method can be used to determine the effect of compounds, including those in the present invention, on the levels of various analytes in plasma (Table 8).

[1] = tested on: Complement Factor H - Related Protein 1 (CFHR1); experiment: Multi-analyte profiling of plasma, ASSURE trial; format: in vivo, human; details: week 26 vs. baseline, N 17
Description: as §1

[2] = tested on: Complement Factor H (CFH); experiment: Multi-analyte profiling of plasma, ASSURE trial; format: in vivo, human; details: week 26 vs. baseline, N 20
Description: as §1

CD55 mRNA = experiment: Microarray analysis of ex-vivo treated human whole blood; format: cell-based; details: 20 uM, 24 h
Description: (§2) In this example, RNA from human whole blood treated ex vivo was analyzed by microarray. The method can be used to determine the effect of compounds, including those in the present invention, on RNA levels (Table 6).
(§3) After obtaining informed consent, whole blood was collected from three healthy volunteers into BD Vacutainer Sodium Heparin tubes and samples were inverted 10 times. Blood samples (1 mL) were combined with 1 mL of RPMI containing 2 mM glutamine, 100 U/mL penicillin, 100 ug/mL streptomycin, 20% FBS and the compound of interest or vehicle (0.1% DMSO), followed by a 24 h incubation at 37° C. Treated samples were transferred to a PAXgene RNA tube (PreAnalytix/Qiagen), inverted 5 times and frozen. RNA was isolated with the PAXgene RNA kit according to manufacturer's instructions. Microarray analysis was performed by Asuragen (Austin, Tex.) using the Affymetrix Human […]. Shown in Table 6 is the mean of 3 independent samples (p<0.01). Downregulation of expression of components of the complement cascade will result in reduced activity of the pathway and thus will constitute a positive result. Upregulation of negative regulators or downregulation of positive regulators of the pathway will also result in reduced activity of the pathway and thus will constitute a positive result.

CD59 mRNA = experiment: as above; format: cell-based; details: 20 uM, 24 h
Description: as §2, §3

[3] = tested on: Complement component 3 (C3) mRNA; experiment: as above; format: cell-based; details: 20 uM, 24 h
Description: as §2, §3

| SMILES | C9 percent maximal reduction in gene expression (complement C9 mRNA) | Complement C3 (C3) Change from baseline (Complement C3 (C3)) [mg/mL] | Complement C3 (C3) Percent Change from baseline (Complement C3 (C3)) [%] | Complement Factor H - Related Protein 1 (CFHR1) Change from baseline [1] [µg/mL] | Complement Factor H - Related Protein 1 (CFHR1) Percent Change from baseline [1] [%] | Complement Factor H (CFH) Change from baseline [2] [µg/mL] | Complement Factor H (CFH) Percent Change from baseline [2] [%] | CD55 % change in expression (CD55 mRNA) [%] | CD59 % change in expression (CD59 mRNA) [%] | Complement component 3 (C3) % change in expression [3] [%] |
| --- | --- | --- | --- | --- | --- | --- | --- | --- | --- | --- |
| Cc1sc2c(c1C)C(c1ccc(Cl)cc1)=N[C@@H](CC(=O)OC(C)(C)C)c1nnc(C)n1-2 [JQ1, (S)-tert-butyl 2-(4-(4-chlorophenyl)-2,3,9-trimethyl-6H-thieno[3,2-f][1,2,4]triazolo[4,3-a][1,4]diazepin-6-yl)acetate, reference compound] | 72% (48 h) |  |  |  |  |  |  |  |  |  |
| COc1cc(OC)c2c(=O)[nH]c(-c3cc(C)c(OCCO)c(C)c3)nc2c1 [RVX000222, 2-(4-(2-hydroxyethoxy)-3,5-dimethylphenyl)-5,7-dimethoxyquinazolin-4(3H)-one] |  | -0.1 | −9.28 | -291.76 | −10.75 | -75.35 | −11.45 | 58 | 88 | −59 |
